Assays:
5-HT2A receptor [1] = target: T1, 5-HT2A receptor (Homo sapiens (Human), UniProt P28223); assay type: cell-based; conditions: Ca^2+ flux, HEK293
Protocol: (§1) Functional Assays at 5-HT2A, 5-HT2B, and 5-HT1A. Agonist activity at 5-HT2A, 5-HT2B, and 5-HT1A receptors was determined using a FLIPR Ca^2+ flux assay at WuXi AppTec (Hong Kong) Limited according to their standard protocols. Briefly, stably transfected cells expressing the receptor of interest (HEK293 for 5-HT2A and 5-HT2B; CHO cells for 5-HT1A) were grown and plated in a 384 well plate and incubated at 37° C. and 5% CO2 overnight. A solution of 250 mM probenecid in 1 mL FLIPR assay buffer was prepared fresh. This was combined with a fluorescent dye (Fluo-4 Direct™) to make a final assay concentration of 2.5 mM. […] The fluorescent dye was then added to the assay plate along with assay buffer to a final volume of 40 μL. The cell plate was incubated for 50 min at 37° C. and 5% CO2 and placed into the FLIPR Tetra along with the compound plate. 10p L of references and compounds were then transferred from the compound plate into the cell plate and the fluorescent signal was read.

5-HT2B receptor = 5-HT2B receptor (Homo sapiens (Human), UniProt P41595); assay: FLIPR Ca^2+ flux agonist assay at 5-HT2B; assay type: cell-based; conditions: HEK293
Protocol: as §1

5-HT1A receptor = 5-HT1A receptor (Homo sapiens (Human), UniProt P08908); assay: FLIPR Ca^2+ flux agonist assay at 5-HT1A; assay type: cell-based; conditions: CHO cells
Protocol: as §1

5-HT1B receptor = 5-HT1B receptor (Homo sapiens (Human), UniProt P28222); assay: cAMP accumulation agonist assay at 5-HT1B; assay type: cell-based
Protocol: Functional Assay at 5-HT1B. Agonist activity at 5-HT1B was determined using a cAMP accumulation protocol at WuXi AppTec (Hong Kong) Limited according to their standard protocols. Briefly, stably transfected cells were plated in an OptiPlate-384 well plate, incubated at RT for 60 mins, and cAMP standard solution (800 nM, 10 μL) was added to the blank well. Then, 10 μL detection reagent was added to each well, the plate incubated for 60 mins at RT, and the plate read using EnVision.

Alpha1A receptor = Alpha1A receptor (Homo sapiens (Human), UniProt P35348); assay: FLIPR Ca^2+ flux agonist assay at Alpha1A; assay type: cell-based
Protocol: Disclosed compounds were tested for agonist activity at several adrenergic (Alpha1A and Alpha2A) and dopamine (D1 and D2) receptor subtypes using Ca^2+ flux functional assays, with the results summarized in Table 6. Selectivity for the 5-HT2A receptor over these other targets varied depending on the specific target and compound.
(§2) Functional Assays at Adrenergic and Dopamine Receptors. Agonist activity at Alpha1A, Alpha2A, D1, and D2 receptors was determined using a FLIPR Ca^2+ flux assay at WuXi AppTec (Hong Kong) Limited according to their standard protocols. Briefly, stably transfected cells expressing the receptor of interest were grown and plated in a 384 well plate and incubated at 37° C. and 5% CO2 overnight. A solution of 250 mM probenecid in 1 mL FLIPR assay buffer was prepared fresh. This was combined with a fluorescent dye (Fluo-4 Direct™) to make a final assay concentration of 2.5 mM. Compounds were diluted 1:3.16 for 10 points and 750 nL was added to a 384 well compound plate using ECHO along with 30 μL assay buffer. The fluorescent dye was then added to the assay plate along with assay buffer to a final volume of 40 μL. The cell plate was incubated for 50 min at 37° C. and 5% CO2 and placed into the FLIPR Tetra along with the compound plate. 10 μL of references and compounds were then transferred from the compound plate into the cell plate and the fluorescent signal was read.

[2] = Metabolic stability in human liver microsomes (HLM); assay type: in vitro ADME; conditions: both sexes, human, pooled human liver microsomes, pH 7.4, NADPH
From the text: HLM Stability. Pooled HLM from adult male and female donors (Corning 452117) were used.

[3] = Metabolic stability in mouse liver microsomes (MLM); assay type: in vitro ADME; conditions: mouse, pooled mouse liver microsomes, pH 7.4, MLM (CD-1), NADPH
From the text: MLM Stability Pooled MLM from CD-1 mice (BIOIVT M00501) were used.

[4] = Metabolic stability in rat liver microsomes (RLM); assay type: in vitro ADME; conditions: both sexes, rat, pooled rat liver microsomes, pH 7.4, NADPH
5-HT2A receptor [5] = target: T1, 5-HT2A receptor; assay type: cell-based; conditions: beta-arrestin recruitment
Protocol: The degree of arrestin bias varied substantially across the other compounds tested as well.
Arrestin Functional Assay at 5-HT2A. Recruitment of beta-arrestin was determined using a PathHunter assay at Eurofins DiscoverX (Fremont, CA) according to their standard protocols. PathHunter GPCR beta-arrestin assays take advantage of DiscoverX's proprietary Enzyme Fragment Complementation technology. The GPCR is fused in frame with a small enzyme donor fragment ProLink™ (PK) and co-expressed in cells stably expressing a fusion protein of beta-arrestin and the larger, N-terminal deletion mutant of beta-galactosidase. Activation of the GPCR (5-HT2A receptor in this case) stimulates binding of beta-arrestin to the PK-tagged GPCR and forces complementation of the two enzyme fragments, resulting in the formation of an active beta-galactosidase enzyme. This interaction leads to an increase in enzyme activity that can be measured using chemiluminescent PathHunter Detection Reagents. Briefly, PathHunter cells expressing 5-HT2A receptors were seeded in a volume of 20 μL into 384-well plates and incubated at 37° C. for the appropriate time prior to testing. […] Plates were then imaged on a microplate reader and the agonist activity was calculated using the following formula: % Activity=100%×(mean RLU of test sample−mean RLU of vehicle control)/(mean MAX control ligand−mean RLU of vehicle control), where RLU=relative light units.

D1 receptor = D1 receptor (Homo sapiens (Human), UniProt P21728); assay: FLIPR Ca^2+ flux agonist assay at D1; assay type: cell-based
Protocol: as §2, with “Compounds were diluted 1:3.16 for 10 points and 750 nL was added to a 384 well compound plate using ECHO along with 30 μL assay buffer.” left out

D2 receptor = D2 receptor (Homo sapiens (Human), UniProt P14416); assay: FLIPR Ca^2+ flux agonist assay at D2; assay type: cell-based
Protocol: as §2, with “Compounds were diluted 1:3.16 for 10 points and 750 nL was added to a 384 well compound plate using ECHO along with 30 μL assay buffer.” left out

Sprague Dawley rats = assay: Forced swim test (FST) in rats; assay type: in vivo, rat; conditions: rat FST, 20 mg/kg SC at 23.5 h, 5 h and 1 h before test swim; average of 3 independent experiments
Protocol: Compound 1 induced antidepressant-like effects in the forced swim test (FST) in rats with a 23.5-h pre-treatment time (FIG. 2).
Animals. Male Sprague Dawley rats, aged 9-10 weeks, were used in this experiment. Animals were housed in groups of 2 under controlled temperature (22±3° C.) and relative humidity (30-70%) conditions, with 12-hour light/dark cycles, and with ad libitum food and water. This study was carried out in strict accordance with the requirements of the Committee for the Purpose of Control and Supervision of Experiments on Animals (CPCSEA), India. All efforts were made to minimize suffering.
Drugs and Drug Administration. Compound 1 was synthesized as described above. Desipramine HCl was commercially obtained. The test compound, saline vehicle, and the positive control desipramine were administered subcutaneously (SC), with doses calculated based on the freebase. Normal saline was used as the vehicle. All compounds were administered at a volume of 5 mL/kg. The test compound and vehicle were administered 0.5 h after the start of the training swim (Swim 1) and 23.5 h before the test swim (Swim 2). Desipramine was administered 3 times, at 23.5 h, 5 h, and 1 h before the test swim (Swim 2), each time at a dose of 20 mg/kg. Group size was n=10 per treatment.
Forced Swim Test (FST). […] Rats were handled for about 2 min daily for the 5 days prior to the beginning of the experimental procedure. On the first day of the experiment (i.e., Day 0), post randomization, training swim sessions (Swim 1) were conducted between 12:00 and 18:00 h with all animals by placing rats in individual glass cylinders (46 cm tall×20 cm in diameter) containing 23-25° C. water 30 cm deep for 15 minutes. At the conclusion of Swim 1, animals were dried with paper towels, placed in heated drying cages for 15 minutes, and then returned to their home cages. Animals were then administered the appropriate drug or vehicle treatment(s), as described above. For clarity, a compound administration time of 23.5 h before Swim 2 means 0.5 h after the start of Swim 1 and 0.25 h after the completion of Swim 1 (i.e., immediately after return to the home cage). On Day 1 (i.e., 24 h after start of Swim 1), animals performed the test swim (Swim 2) for a period of 5 min but otherwise under the same conditions as Swim 1. During all swim sessions, the water was changed between each animal.
Behavioral scoring was conducted by observers who were blind to the treatment groups. Animals were continuously observed during Swim 2 and the total time spent engaging in the following behaviors was recorded: immobile, swimming, and climbing. A rat was judged to be immobile when it remained floating in the water without struggling and was making only those movements necessary to keep its head above water. A rat was judged to be swimming when it made active swimming motions, more than necessary to merely maintain its head above water (e.g., moving around in the cylinder). A rat was judged to be climbing when it made active movements with its forepaws in and out of the water, usually directed against the walls.
Statistical Analysis. The data points shown represent the mean±standard error of the mean (SEM). Analysis was performed using GraphPad Prism 6. Comparisons between groups were performed using the one-way analysis of variance (ANOVA), followed by Dunnett's test for comparisons to vehicle.
Additional disclosed compounds were tested in the forced swim test (FST) in rats according to the procedure described in Example 35.

Chain of 5-HT2B receptor (P41595 whole entry, looked up): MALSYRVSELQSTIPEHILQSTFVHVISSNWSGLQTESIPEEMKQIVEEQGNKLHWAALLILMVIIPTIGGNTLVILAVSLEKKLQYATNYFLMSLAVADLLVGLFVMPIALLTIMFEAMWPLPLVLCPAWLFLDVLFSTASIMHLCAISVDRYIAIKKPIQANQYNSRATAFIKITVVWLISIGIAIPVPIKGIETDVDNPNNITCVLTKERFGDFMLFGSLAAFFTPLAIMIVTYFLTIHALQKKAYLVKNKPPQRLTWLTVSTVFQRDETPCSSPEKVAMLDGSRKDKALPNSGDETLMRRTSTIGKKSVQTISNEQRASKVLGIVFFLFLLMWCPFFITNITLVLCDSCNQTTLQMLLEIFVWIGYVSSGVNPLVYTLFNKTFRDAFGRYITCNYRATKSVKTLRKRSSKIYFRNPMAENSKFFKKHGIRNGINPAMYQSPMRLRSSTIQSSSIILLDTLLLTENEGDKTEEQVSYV
Chain of 5-HT1B receptor (P28222 whole entry, looked up): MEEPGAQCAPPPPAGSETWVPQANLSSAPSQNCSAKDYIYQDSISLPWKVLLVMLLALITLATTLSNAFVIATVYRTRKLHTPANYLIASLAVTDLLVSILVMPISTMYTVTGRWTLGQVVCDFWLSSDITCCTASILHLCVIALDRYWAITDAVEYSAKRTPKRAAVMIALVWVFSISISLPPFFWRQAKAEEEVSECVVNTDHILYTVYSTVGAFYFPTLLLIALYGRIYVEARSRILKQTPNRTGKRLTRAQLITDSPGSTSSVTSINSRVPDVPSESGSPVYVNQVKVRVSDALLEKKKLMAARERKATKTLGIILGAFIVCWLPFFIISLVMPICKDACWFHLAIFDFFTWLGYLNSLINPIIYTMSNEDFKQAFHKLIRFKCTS
Chain of Alpha1A receptor (P35348 whole entry, looked up): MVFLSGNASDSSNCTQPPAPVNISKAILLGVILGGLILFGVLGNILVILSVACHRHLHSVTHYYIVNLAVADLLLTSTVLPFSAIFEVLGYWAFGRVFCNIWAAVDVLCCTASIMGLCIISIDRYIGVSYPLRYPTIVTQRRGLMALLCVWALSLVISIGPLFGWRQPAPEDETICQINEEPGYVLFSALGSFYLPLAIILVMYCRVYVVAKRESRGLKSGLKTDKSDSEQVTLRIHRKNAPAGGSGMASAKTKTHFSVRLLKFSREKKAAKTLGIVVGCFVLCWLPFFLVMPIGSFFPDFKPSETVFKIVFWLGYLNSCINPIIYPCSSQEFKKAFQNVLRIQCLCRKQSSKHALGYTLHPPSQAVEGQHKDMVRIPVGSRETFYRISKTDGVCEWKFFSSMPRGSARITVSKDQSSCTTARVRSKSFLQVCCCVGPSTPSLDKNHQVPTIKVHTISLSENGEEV
Chain of D2 receptor (P14416 whole entry, looked up): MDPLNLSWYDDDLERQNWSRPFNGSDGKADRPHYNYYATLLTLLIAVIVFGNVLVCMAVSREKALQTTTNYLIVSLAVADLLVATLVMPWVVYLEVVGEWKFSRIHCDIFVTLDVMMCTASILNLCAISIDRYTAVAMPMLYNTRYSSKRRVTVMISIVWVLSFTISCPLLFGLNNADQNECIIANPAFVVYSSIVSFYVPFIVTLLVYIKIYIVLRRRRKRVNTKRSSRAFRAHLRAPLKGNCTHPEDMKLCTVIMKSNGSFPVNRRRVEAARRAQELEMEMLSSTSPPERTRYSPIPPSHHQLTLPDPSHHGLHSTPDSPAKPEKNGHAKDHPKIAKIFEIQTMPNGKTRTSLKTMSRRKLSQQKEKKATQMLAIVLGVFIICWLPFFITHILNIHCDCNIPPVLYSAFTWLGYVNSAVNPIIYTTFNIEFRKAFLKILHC
Chain of D1 receptor (P21728 whole entry, looked up): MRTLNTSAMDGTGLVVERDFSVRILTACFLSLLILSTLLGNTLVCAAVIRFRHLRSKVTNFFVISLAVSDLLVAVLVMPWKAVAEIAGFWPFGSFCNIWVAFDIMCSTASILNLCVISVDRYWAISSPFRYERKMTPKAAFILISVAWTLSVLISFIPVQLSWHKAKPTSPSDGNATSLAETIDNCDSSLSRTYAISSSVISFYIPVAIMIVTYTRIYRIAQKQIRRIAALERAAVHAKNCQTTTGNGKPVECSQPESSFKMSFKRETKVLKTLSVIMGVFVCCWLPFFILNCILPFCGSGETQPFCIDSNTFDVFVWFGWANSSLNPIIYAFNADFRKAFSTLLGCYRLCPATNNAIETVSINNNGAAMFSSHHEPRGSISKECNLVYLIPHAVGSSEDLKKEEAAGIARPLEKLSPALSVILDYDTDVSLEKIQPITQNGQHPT

Row | Compound | 5-HT2A % Act @ Max Dose (5-HT2A receptor [1]) | 5-HT2B % Act @ Max Dose (5-HT2B receptor) | 5-HT1A % Act @ Max Dose (5-HT1A receptor) | 5-HT1B % Act @ Max Dose (5-HT1B receptor) | Alpha 1A % Act @ Max Dose (Alpha1A receptor) | half-life at 1 μM [2] | half-life at 1 μM [3] | half-life at 1 μM [4] | 5-HT2A Arrestin % Act @ Max Dose (5-HT2A receptor [5]) | agonist type in the 5-HT2A arrestin recruitment assay, in words (5-HT2A receptor [5]) | D1 % Act @ Max Dose (D1 receptor) | D2 % Act @ Max Dose (D2 receptor) | Time Immobile (Sprague Dawley rats)
1 | CCN(CC)C(=O)[C@@H]1C=C2c3cccc4[nH]cc(c34)C[C@H]2N(CC2CC2)C1 [Compound 13, (6aR,9R)-N,N-diethyl-7-(Cyclopropylmethyl)-4,6,6a,7,8,9-hexahydroindolo[4,3-fg]quinoline-9-carboxamide] | 92.60% | 91.75% | 83.08% | 90.43% | 80.79% | 21.1 min | 3.7 min | 27.7 min |  |  |  |  | 
2 | CCN(CC)C(=O)[C@@H]1C=C2c3cccc4[nH]cc(c34)C[C@H]2N(C)C1 [LSD, lysergic acid diethylamide, reference compound] | 107.7% | 19.26% | 91.39% | 98.03% | 60.3% | 71.6 min | 31.3 min | 60.2 min | 52.646% | partial agonists | 94.9% | 78.33% | 
3 | CNCCCN1c2ccccc2CCc2ccccc21 [Desipramine, reference compound] |  |  |  |  |  |  |  |  |  |  |  |  | 60.93 s
4 | CCN(CC)C(=O)[C@@H]1C=C2c3cccc4[nH]cc(c34)C[C@H]2N(CCC(F)(F)F)C1 [Compound 12, (6aR,9R)-N,N-diethyl-7-(3,3,3-trifluoropropyl)-4,6,6a,7,8,9-hexahydroindolo[4,3-fg]quinoline-9-carboxamide] | 78.69% | 29.55% | 71.42% | 95.51% | 2.08% | 13.5 min | 2.1 min | 5.9 min |  |  |  |  | 

— US20240368151A1, “NOVEL ERGOLINES AND METHODS OF TREATING MOOD DISORDERS” (priority 2021, published 2024)
